Like-named read-outs stand apart in the source and are kept apart here.
Assays:
[1] = system: L. donovani axenic, strain MHOM-ET-67/L82 amastigotes; assay: In vitro activity against L. donovani; assay type: cell-based; conditions: for SI (L.d.): IC50 in L6 cells/IC50 in L. donovani; for antileishmanial activity class (TDR criteria): L. donovani; for IC50: Leishmania donovani, L. donovani axenic amastigotes MHOM-ET-67/L82, means of 2 to 3 measurements, SD < 5%, read-out: L.d. IC50
Description: (§3) The concentration of compound that inhibits parasite growth by 50% (IC50) was calculated from dose response curves for each parasite (Table 1). In addition, compounds were tested for toxicity in L6 rat skeletal myoblasts, the host cells for T. cruzi amastigotes, in order to calculate a selectivity index for each parasite [SI = IC50L6/IC50parasite]
(§4) In vitro activity against T. cruzi, T. b. rhodesiense, L. donovani and cytotoxicity assessment using L6 cells (rat skeletal myoblasts) was determined using a 96-well plate format as previously described [37]. Data were analyzed with the graphic program Softmax Pro (Molecular Devices, Sunnyvale, CA, USA), which calculated IC50 values by linear regression from the sigmoidal dose inhibition curves.

[2] = system: T. cruzi, strain Tulahuen C4 amastigotes; assay: In vitro activity against T. cruzi; assay type: cell-based; conditions: for SI (T. c.): IC50 in L6 cells/IC50 in T. cruzi; for IC50: Trypanosoma cruzi, T. cruzi Tulahuen C4 amastigotes, means of 2 to 3 measurements, SD < 5%, read-out: T. c. IC50; for Bnz/comp: fold antichagasic potency relative to Bnz (T. cruzi IC50 ratio)
Description: as §3, §4

[3] = system: purified his-tagged recombinant TbNTR; assay: Enzymatic activity with type I TbNTR; assay type: biochemical, T. brucei; conditions: substrate 100 μM, NADH 100 μM
Description: Enzyme specific activity was measured as oxidized NADH (nmol) per min per mg of protein. […] As we have reported before with other classes of 3-nitrotriazole-based antitrypanosomal compounds, no correlation between anti-HAT activity and TbNTR specific activity was observed, [13], [15], [16], [17], [18].
Recombinant TbNTR was prepared and assayed as previously described, [39]. The specific activity of purified his-tagged TbNTR was assessed spectrophotometrically at 340 nm using various nitrotriazole substrates (100 μM) and NADH (100 μM) and expressed as nmol NADH oxidized min^−1 mg^−1 of enzyme.

[4] = system: T.b. rhodesiense, strain STIB 900 trypomastigotes; assay: In vitro activity against T. b. rhodesiense; assay type: cell-based; conditions: for SI (T.b.r.): IC50 in L6 cells/IC50 in T.b. rhodesiense; for anti-HAT activity class (TDR criteria): T. b. rhodesiense; for IC50: Trypanosoma brucei, T.b. rhodesiense STIB 900 trypomastigotes, means of 2 to 3 measurements, SD < 5%, read-out: T.b.r. IC50; for fold more potent against T. b. rhodesiense than the corresponding acetamide: propanamide vs acetamide analog
Description: (§1) Compounds in Table 1 were screened for anti-parasitic activity against three trypanosomatids: T. cruzi, T. b. rhodesiense and Leishmania donovani and compared with previously made analogs shown in orange and designated with a. […] In addition, compounds were tested for toxicity in L6 rat skeletal myoblasts, the host cells for T. cruzi amastigotes, in order to calculate a selectivity index for each parasite [SI = IC50L6/IC50parasite] (Table 1). The TDR (Special Programme for Research and Training in Tropical Diseases, World Health Organization) criteria were adopted to interpret antiparasitic activity and selectivity.
(§2) In vitro activity against T. cruzi, T. b. rhodesiense, L. donovani and cytotoxicity assessment using L6 cells (rat skeletal myoblasts) was determined using a 96-well plate format as previously described. Data were analyzed with the graphic program Softmax Pro (Molecular Devices, Sunnyvale, CA, USA), which calculated IC50 values by linear regression from the sigmoidal dose inhibition curves.

[5] = system: bloodstream form T.b. brucei wild type; assay: T. brucei antiproliferating assay, wild type; assay type: cell-based; conditions: means from 4 experiments ± SD
Description: The BSF of T. brucei parasites were seeded at 1 × 10^3 mL^−1 in 200 μL of growth medium containing different concentrations of nitroheterocycle. Where appropriate, induction of the TbNTR was carried out by adding tetracycline (1 μg/mL). After incubation for 3 days at 37 °C, 20 μL of Alamar blue was added to each well and the plates incubated for a further 16 h. The cell density of each culture was determined as described before and the IC50 established.

[6] = Cytotoxicity in the host L6 cells; assay type: cell-based, rat; conditions: rat, L6 cells (rat skeletal myoblasts); cytotoxicity in host L6 cells; read-out: Cyt. L6 IC50
Description: as §1, §2

[7] = system: bloodstream form T.b. brucei recombinant parasites expressing wild type (-tet) or elevated (+tet) levels of TbNTR; assay: microbe, parasite or virus in culture; assay type: cell-based; conditions: Trypanosoma brucei
Description: The BSF of T. brucei parasites were seeded at 1 × 10^3 mL^−1 in 200 μL of growth medium containing different concentrations of nitroheterocycle. Where appropriate, induction of the TbNTR was carried out by adding tetracycline (1 μg/mL). After incubation for 3 days at 37 °C, 20 μL of Alamar blue was added to each well and the plates incubated for a further 16 h. The cell density of each culture was determined as described before [20] and the IC50 established.

[8] = system: transgenic T. cruzi parasites expressing firefly luciferase; assay type: in vivo, Balb/c mice
Description: A fast luminescence assay was used in an acute infected murine model, in which transgenic T. cruzi parasites expressing firefly luciferase were injected in 5 week-old Balb/c mice. Mice were injected with D-luciferin before imaging. Groups of 5 mice/group were treated i.p. for 10 consecutive days with each compound, at 13 or 15 mg/kg/day. […] The mean ratio of parasite levels was calculated after 5 and 10 days of treatment.
For in vivo studies, a Brazilian strain trypomastigotes from transgenic T. cruzi parasites expressing firefly luciferase were used as described before. Briefly, parasites (10^5 trypomastigotes) were injected in 5 week-old Balb/c mice (Taconic) and three days later mice were anesthesized by inhalation of isofluorane, followed by an injection with 150 mg/kg of D-luciferin potassium-salt in PBS. Mice were imaged 5–10 min after injection of luciferin with an IVIS 100 (Xenogen, Alameda, CA) and the data acquisition and analysis were performed with the software LivingImage (Xenogen) as described before. Treatment with test compounds started 4 days post infection at 13 or 15 mg/kg/day × 10 days, given i.p. The vehicle control was 2% methylcellulose +0.5% Tween 80 and groups of 5 mice/group were used. Mice were imaged after 5 and 10 days of treatment. The ratio of parasite levels was calculated for each animal dividing the luciferase signal after treatment by the luciferase signal on the first imaging (before treatment). Mean values of all animals in each group ± SD were used for plotting.

[9] = Trypanosoma brucei, read-out: IC50 value T.b. brucei Wild type, bloodstream form
[10] = read-out: IC50 value T.b. brucei TbNTR (+tet)
[11] = read-out: IC50 value T.b. brucei TbNTR (-tet)

With `O=C(Cn1cnc([N+](=O)[O-])n1)Nc1cc(-c2ccc(F)cc2)on1` [Compound 13, N-(5-(4-fluorophenyl)isoxazol-3-yl)-2-(3-nitro-1H-1,2,4-triazol-1-yl)acetamide] the “SI (L.d.)” value [1] was 20.5, the “antileishmanial activity class (TDR criteria)” value (“antileishmanial activity class” below) [1] was “inactive” and the IC50 [1] was 9790 nM. The “SI (T. c.)” value [2] was 590, the IC50 [2] was 340 nM and the Bnz/comp [2] was 6.5. For the same molecule, the “TbNTR specific enzyme activity, fold greater than benznidazole” value [3] was at most 4 fold, the “SI (T.b.r.)” value [4] was 25.1 and the “anti-HAT activity class (TDR criteria)” value [4] was “inactive”. For the same molecule, the IC50 [4] was 8000 nM, the IC50 [5, 9] was 26600 ± 6020 nM and the melting point was over 220 °C. It also gave an IC50 [6] of 201000 nM.
With `O=C(CCn1cnc([N+](=O)[O-])n1)Nc1cccc(OCc2ccccc2)c1` [Compound 11, N-(3-(benzyloxy)phenyl)-3-(3-nitro-1H-1,2,4-triazol-1-yl)propanamide] the “SI (L.d.)” value [1] was 35, the “antileishmanial activity class” value [1] was “moderate activity” and the IC50 [1] was 1140 nM. The “fold more potent against L. donovani than the acetamide analog” value ([1]; propanamide vs acetamide analog) was “ca. 3 fold”, the IC50 [7, 10] was 360 ± 20 nM and the IC50 [7, 11] was 3700 ± 580 nM. The “SI (T. c.)” value [2] was 868, the IC50 [2] was 46 nM and the Bnz/comp [2] was 48. For the same molecule, the “TbNTR specific enzyme activity, fold greater than benznidazole” value [3] was at most 4 fold, the “SI (T.b.r.)” value [4] was 182 and the IC50 [4] was 221 nM. For the same molecule, the “fold more potent against T. b. rhodesiense than the corresponding acetamide” value [4] was 22 fold, the IC50 [5, 9] was 4250 ± 160 nM and the melting point was 119 to 120 °C. The IC50 [6] was 40200 nM.
With `O=C(CCn1cnc([N+](=O)[O-])n1)Nc1cc(-c2ccc(Cl)cc2)no1` [Compound 14, N-(3-(4-chlorophenyl)isoxazol-5-yl)-3-(3-nitro-1H-1,2,4-triazol-1-yl)propanamide] the “antileishmanial activity class” value [1] was “moderately active (‘moderate activity’ (IC50 between 1.0 and 6.0 μM))”, the IC50 [1] was 2950 nM and the IC50 [7, 10] was 290 ± 20 nM. For the same molecule, the IC50 [7, 11] was 910 ± 30 nM, the IC50 [2] was 251 nM and the Bnz/comp [2] was 9. The “substrate of TbNTR / rate of metabolism” value [3] was “equivalent rates”, the “anti-HAT activity class (TDR criteria)” value [4] was “moderately active (IC50 between 0.5 and 6.0 μM)” and the IC50 [4] was 651 nM. The IC50 [5, 9] was 270 ± 50 nM and the IC50 [6] was 179000 nM.
For `O=C(CCn1cnc([N+](=O)[O-])n1)Nc1ccc(Oc2ccc(Cl)cc2)cc1` [Compound 6, N-(4-(4-chlorophenoxy)phenyl)-3-(3-nitro-1H-1,2,4-triazol-1-yl)propanamide], the IC50 [1] was 1150 nM, the IC50 [7, 10] was 340 nM and the IC50 [7, 11] was 620 ± 30 nM. For the same molecule, the “SI (T. c.)” value [2] was 3343, the IC50 [2] was 5 nM and the Bnz/comp [2] was 441. For the same molecule, the “TbNTR specific enzyme activity, fold greater than benznidazole” value [3] was at most 4 fold, the “SI (T.b.r.)” value [4] was 418 and the IC50 [4] was 41 nM. For the same molecule, the “fold more potent against T. b. rhodesiense than the corresponding acetamide” value [4] was 32 fold, the “toxicity symptoms in treated mice” value ([8]; 13 mg/kg/day i.p. x 10 days) was “did not look very healthy, although no deaths occurred” and the “parasite load after 10 days of treatment” value ([8]; 13 mg/kg/day i.p. x 10 days, acute murine model, p < 0.0001) was “undetectable levels”. The “parasitic level after 5-day treatment” value ([8]; 13 mg/kg/day i.p., compared to untreated control) was “Statistically significant reduction in parasitic level”, the IC50 [5, 9] was about 650 nM and the IC50 ([5]; read-out: IC50 value T.b. brucei Wild type, bloodstream form) was 640 ± 20 nM. It also gave an IC50 [6] of 17300 nM.
For `O=C(Cn1cnc([N+](=O)[O-])n1)Nc1cc(-c2ccc(Cl)cc2)no1` [Compound 15, N-(3-(4-chlorophenyl)isoxazol-5-yl)-2-(3-nitro-1H-1,2,4-triazol-1-yl)acetamide], the “antileishmanial activity class” value [1] was “inactive”, the IC50 [1] was 12500 nM and the IC50 [7, 10] was 1230 ± 60 nM. It also gave an IC50 [7, 11] of 13300 ± 1400 nM, an IC50 [2] of 1530 nM and a Bnz/comp [2] of 1.4. For the same molecule, the “substrate of TbNTR / rate of metabolism” value [3] was “equivalent rates”, the “anti-HAT activity class (TDR criteria)” value [4] was “inactive” and the IC50 [4] was 15100 nM. It also gave an IC50 [5, 9] of 8650 ± 490 nM and an IC50 [6] of 112000 nM.

From paper PMC5049494, “Nitrotriazole-based acetamides and propanamides with broad spectrum antitrypanosomal activity” (European Journal of Medicinal Chemistry, 2016)
